Structures can show the parent of a compound that is named as a salt.
Legend:
Experiment in all cases: whole plant or invertebrate
Assay type in all cases: in vivo
[1] = test system: Spodoptera exigua; settings: 500 ppm; 2nd-instar larvae, leaf immersion feeding
Summary of the method: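 Leaf immersion feeding: second-instar larvae (about 35 per vessel, triplicate) kept at 28° C on discs treated with 500 ppm test solution in 0.05% Tween-80. Mortality at 24 h, calculated relative to surviving larvae in the solvent control.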

[2] = test system: Aphis craccivora; settings: 500 ppm; wingless adults, immersion 5 seconds, counted after 24 hours
Summary of the method: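 Mortality scored 24 h after treatment as the reduction in live aphids versus a 0.05% Tween-80 control; three replicates, 23° C. Treatment was a 5 s immersion of wingless adults on bean sprouts in 500 ppm test solution containing 0.05% Tween-80, followed by air-drying.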

[3] = test system: Solenopsis invicta; settings: 100 ppm, water test tube poison-feeding
Summary of the method: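 Mortality (%) of Solenopsis invicta, computed against live counts in control tubes, was recorded 24 h and 72 h after treatment at 25 °C. Compound was offered by oral feeding in test tubes at 100 ppm, diluted from a 10 g/L DMSO stock into water with 5% honey and 0.05% Tween-80.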

[4] = test system: Plutella xylostella; settings: 500 ppm; 2nd-instar larvae, leaf immersion feeding
Summary of the method: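 Leaf immersion feeding test: 2nd-instar larvae (about 35 per vessel, 3 replicates) kept at 28° C. on 1.0 cm cabbage discs soaked 5 s in a 500 ppm solution with 0.05% Tween-80. Mortality after 24 h of exposure, calculated relative to live larvae in the Tween-80 control.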

Compound	Spodoptera exigua Mortality (%) [1] [%]	Aphis craccivora Mortality (%) [2] [%]	Solenopsis invicta Mortality (%) 24 h [3] [%]	Solenopsis invicta Mortality (%) 72 h [3] [%]	Plutella xylostella Mortality (%) [4] [%]
N#Cc1nn2c(c1[S+]([O-])C(F)(F)F)NC(Cl)(CC(F)(F)F)c1c(Cl)cncc1-2 (stereo not shown) [b-48]	89	100	15	90	100
COC(=O)C(C)C1Nc2c([S+]([O-])C(F)(F)F)c(C#N)nn2-c2cncc(Cl)c21 (stereo not shown) [b-66]	91	100	28	97	96
N#Cc1nn2c(c1[S+]([O-])C(F)(F)F)NC(CC(=O)C(F)(F)F)c1c(Cl)cncc1-2 (stereo not shown) [b-70]	95	100	44	100	100
N#CCC1Nc2c([S+]([O-])C(F)(F)F)c(C#N)nn2-c2cncc(Cl)c21 (stereo not shown) [b-73]	85	100	20	90	89
N#Cc1nn2c(c1[S+]([O-])C(F)(F)F)NC(Cl)c1c(Cl)cncc1-2 (stereo not shown) [b-80]	90	100	14	90	95
CC=CC1Nc2c([S+]([O-])C(F)(F)F)c(C#N)nn2-c2cncc(Cl)c21 (stereo not shown) [b-86]	89	100	20	97	96
COC(=O)C1Nc2c([S+]([O-])C(F)(F)F)c(C(F)(F)F)nn2-c2cncc(Cl)c21 (stereo not drawn) [b-87, 6-chloro-2-trifluoromethyl-3-trifluoromethylsulfinyl-4,5-dihydropyrazole[1,5-α]quinazoline[4,3-e]pyridine-5-methyl formate]	95	100	14	100	95
COC(=O)CC1Nc2c([S+]([O-])C(F)(F)F)c(C(F)(F)F)nn2-c2cncc(Cl)c21 (stereo not shown) [b-88]	100	100	25	100	100
O=C(C1Nc2c([S+]([O-])C(F)(F)F)c(C(F)(F)F)nn2-c2cncc(Cl)c21)C(F)(F)F (stereo not shown) [b-94]	90	100	20	100	100
CNC(=O)C1Nc2c([S+]([O-])C(F)(F)F)c(C(F)(F)F)nn2-c2cncc(Cl)c21 (stereo not shown) [b-99]	85	100	24	90	91
[O-][S+](c1c(C(F)(F)F)nn2c1NC(Br)c1c(Cl)cncc1-2)C(F)(F)F (stereo not shown) [b-104]	96	100	20	96	96
COC(=O)CC1Nc2c(OC(F)(F)F)c(C#N)nn2-c2cncc(Cl)c21 (stereo not shown) [b-111]	100	100	24	100	100
N#Cc1nn2c(c1OC(F)(F)F)NC(CC(=O)C(F)(F)F)c1c(Cl)cncc1-2 (stereo not shown) [b-116]	98	100	20	100	100
N#Cc1nn2c(c1OC(F)(F)F)NC(C#N)c1c(Cl)cncc1-2 (stereo not shown) [b-118]	91	100	14	99	99
CNC(=O)CC1Nc2c(OC(F)(F)F)c(C#N)nn2-c2cncc(Cl)c21 (stereo not shown) [b-123]	95	100	24	100	99
CC(C)C1Nc2c(OC(F)(F)F)c(C#N)nn2-c2cncc(Cl)c21 (stereo not shown) [b-131]	95	100	11	100	95
COC(=O)CC1(C(=O)OC)Nc2c(C#N)c(C(F)(F)F)nn2-c2cncc(Cl)c21 (stereo not shown) [b-136]	100	100	20	97	100
COC(=O)CC1(C(=O)OC)Nc2c(C(F)(F)F)c(C#N)nn2-c2cc(C(F)(F)F)cc(Cl)c21 (stereo not shown) [c-2]	90	100	20	97	95
COC(=O)CC1(C(=O)OC)Nc2c(C#N)c(C(F)(F)F)nn2-c2cc(C(F)(F)F)cc(Cl)c21 (stereo not shown) [c-4]	100	100	29	93	97
COC(=O)C1(CC(=O)OCC(F)(F)F)Nc2c([S+]([O-])C(F)(F)F)c(C#N)nn2-c2cc(C(F)(F)F)cc(Cl)c21 (stereo not shown) [c-19]	100	100	20	100	100
COC(=O)C1(CC(=O)OCC(F)F)Nc2c([S+]([O-])C(F)(F)F)c(C#N)nn2-c2cc(C(F)(F)F)cc(Cl)c21 (stereo not shown) [c-20]	100	100	14	100	100
N#Cc1nn2c(c1[S+]([O-])C(F)(F)F)NC(Cc1ccccc1)(C(=O)C(F)(F)F)c1c(Cl)cc(C(F)(F)F)cc1-2 (stereo not shown) [c-36]	90	95	21	100	92
CC(=O)C1(C(=O)C(F)(F)F)Nc2c([S+]([O-])C(F)(F)F)c(C#N)nn2-c2cc(C(F)(F)F)cc(Cl)c21 (stereo not shown) [c-39]	89	100	24	90	95
N#Cc1nn2c(c1[S+]([O-])C(F)(F)F)NC(CCCl)(C(=O)C(F)(F)F)c1c(Cl)cc(C(F)(F)F)cc1-2 (stereo not shown) [c-42]	80	100	20	97	86
CC(=O)C1(CC(=O)C(F)(F)F)Nc2c([S+]([O-])C(F)(F)F)c(C#N)nn2-c2cc(C(F)(F)F)cc(Cl)c21 (stereo not shown) [c-47]	89	100	35	99	90
COC(=O)CC1(C(=O)OC)Nc2c([S+]([O-])C(F)(F)F)c(C#N)nn2-c2cc(OC(F)(F)F)cc(Cl)c21 (stereo not shown) [c-224]	95	100	25	100	99
COC(=O)CC1(C(=O)OC)Nc2c(OC(F)(F)F)c(C#N)nn2-c2c(Cl)cc(C(F)(F)F)cc21 (stereo not drawn) [d-3]	98	100	21	87	100
COC(=O)CC1(C(=O)OC)Nc2c([S+]([O-])C(F)(F)F)c(C(C)=O)nn2-c2c(Cl)cc(C(F)(F)F)cc21 (stereo not drawn) [d-8]	82	90	15	65	85
COC(=O)CC1(C(=O)OC)Nc2c([S+]([O-])C(F)(F)F)c(CN)nn2-c2c(Cl)cc(C(F)(F)F)cc21 (stereo not drawn) [d-9]	79	96	21	77	82

From patent US11401271B2, “Fused heterocyclic compound, pyrazole-ring-containing fused heterocyclic compound, agricultural composition containing thereof, and method of using the composition” (SOUTH CHINA AGRICULTURAL UNIVERSITY, priority 2017, dated 2022)
